# Reference: US12280144B2, “Gel compositions for mitigation of burn injuries, kits containing the gel compositions, and associated methods” (priority 2019, dated 2025)
# What was measured:
# [1] = cited from earlier work; for pKa1 / pKa2: 25° C.; for pKa: Table 1, pKa of the parent weak acid of the sodium salt
# [2] = at 25° C.; KCl and NaHCO3 values are assumed (NaHCO3: Leaist et al); cited from earlier work
# [3] = Acid/base dissociation constants of weak acids and their sodium salts; conditions: anion of the salt in water; for Kb: Kb=10^−pKb
# [4] = external use on burn wounds in HSST; cited from earlier work
compound,measurement,setting,value
O=C(O)CC(O)(CC(=O)O)C(=O)O [Citric Acid],pKa1,[1],2.92
same,pKa2,[1],4.28
same,pKa3,[1],5.21
[Cl-].[K+] [KCl],diffusivity in water DAB,[2],13.6·10^−6 cm^2/s
CC(O)C(=O)O (stereo not shown) [Lactic Acid],Kb,[3],7.24*10^−12
O=C([O-])O.[Na+] [Sodium Bicarbonate],pKa1,[1],6.35
same,pKa2,[1],10.3
same,pKa,[1],6.35
same,Kb,[3],2.24*10^−6
same,pKb,"[3]; pKb=14.00−pKa, 25° C.",7.65
CC(O)C(=O)[O-].[Na+] (stereo not shown) [Sodium Lactate],pKa,[1],3.86
O=C([O-])CC(O)(CC(=O)[O-])C(=O)[O-].[Na+].[Na+].[Na+] [Trisodium Citrate],pKa,[1],3.14
CCN(CC)CC(=O)Nc1c(C)cccc1C [lidocaine],dosage considered safe for external use,[4],less than 400 mg
